Source: patent publication US11806393B2, “Flavivirus peptide sequences, epitopes, and methods and uses thereof” (priority 2017, dated 2023)

Experiments:
Type in all cases: cell-based, mouse
CD8+ T cells [1] = assay: IFNγ-ELISPOT of predicted H-2b-binding ZIKV peptides; details: CD8+ T cells of mice infected with MR766 or FSS13025, day 7; positive: SFC per 10^6 CD8+ T cells ≥20 and stimulation index ≥2
Experimental: CD8^+ T cells were isolated by magnetic bead positive selection (Miltenyi Biotec, Germany). A total of 2×10^5 CD8^+ T cells were stimulated with 1×10^5 LPS-blast cells as antigen presenting cells (APCs) and 10 μg of individual ZIKV-derived peptide in 96-well flat-bottom plates (IMMOBILON™-P; Millipore, MA) coated with anti-mouse IFNγ monoclonal antibody (mAb) (clone AN18; Mabtech, Sweden) in triplicate. IFNγ-ELISPOT was performed as previously detailed (Elong Ngono et al., 2016). Positive peptides were those with a number of spot-forming cells (SFC) per 10^6 CD8^+ T cells ≥20 and a stimulation index ≥2 based on the negative control (DMSO). […]
The following results are with reference to FIG. 3A and FIG. 3B, where five-week-old LysMCre^+IFNAR^fl/fl were infected retro-orbitally with 10^4 FFU of ZIKV MR766 or FSS13025. […] A total of 244 peptides from ZIKV strains predicted to bind H-2Kb and H-2db with high affinity were screened. Two independent experiments for each ZIKV strain (n=5 mice for each experiment) were performed in triplicate per peptide. The data are expressed as the mean of spot forming cells (SFC) per 10^6 CD8^+ T cells, and error bars are represented as SEM. One-way ANOVA was used to compare the mean of each peptide with the control (DMSO) ([…]). […] The dotted line corresponds to the average amount of IFNγ produced by MOCK mice when stimulated with positive ZIKV-derived peptides (0.19% of IFNγ+CD8^+ T cells).

CD8+ T cells [2] = assay: IFNγ ELISPOT, ZIKV-infected Ifnar-/- HLA-B*0702 transgenic mice; details: HLA-B*0702 mice; for SFC/10^6 CD8+ T cells, FSS13025: 7 days after 1×10^2 FFU ZIKV FSS13025; for SFC/10^6 CD8+ T cells, MR766: 7 days after 1×10^2 FFU ZIKV MR766; for immunodominance in IFNγ ELISPOT: immunodominant: >500 SFCs/10^6 CD8+ T cells, shared by both ZIKV strains
Experimental: (§1) Two ZIKV strains, MR766 (Uganda, 1947) and FSS13025 (Cambodia, 2010), were obtained from the World Reference Center for Emerging Viruses and Arboviruses (WRCEVA). The mouse-adapted DENV2 strain S221 is a triple-plaque purified clone derived from DENV2 D2S1038. Both ZIKV and DENV2 were amplified in C6/36 mosquito cells, and viral titers were measured using baby hamster kidney (BHK)-21 cell-based focus forming assay (FFA). For epitope screening, 5-week old mice (female or male) were infected retro-orbitally (R.O.) with either 1×102 FFU of ZIKV FSS13025 or ZIKV MR766, or 2×10^4 FFU of DENV2 S221 in 200 μl 10% FBS/PBS. Seven days after infection, CD8^+ T cells were isolated from splenocytes and used for ELISPOT assay, while the splenocytes were directly used for ICS assay. Additionally, 5-week old mice were inoculated I.P. with 2×10^3 FFU of DENV2 S221 for 4 weeks.
CD8^+ T cells were isolated from splenocytes using magnetic bead positive selection (Miltenyi Biotec, Germany) 7 days after virus infection. 2×10^5 CD8^+ T cells were stimulated with 1×10^5 LPS-blasts loaded with 10 μg of individual peptide in 96-well flat-bottom plates (IMMOBILON™-P; Millipore, Bedford, Mass.) that were coated with anti-IFNγ mAb (clone AN18; Mabtech, Stockholm, Sweden) in triplicate. Concanavalin A (ConA) was used as positive control. After 20 hours of incubation, biotinylated anti-mouse IFNγ mAb (R4-6A2; Mabtech), followed by ABC peroxidase (Vector Laboratories, Burlingame, Calif., USA) and then 3-amino-9-ethylcarbazole (Sigma-Aldrich, St. Louis, Mo., USA) were added into the wells. […] A peptide inducing a magnitude of >500 SFCs/10^6 CD8^+ T cells was considered as an immunodominant peptide.
Two independent experiments performed in triplicate were averaged and the error bars represent the SEM. The data are expressed as the mean number of spot forming cells (SFC) per 10^6 CD8^+ T cells. The criteria for positivity were net SFC per 10^6 cells of >20, and a stimulation index of >2.0 when compared with the negative control. Dotted lines represent the cutoff value. * Indicates a positive response. […] ConA denotes Concanavalin A.

CD3+CD8+ T cells = assay: IFNγ ICS, ZIKV-infected Ifnar-/- HLA-B*0702 transgenic mice; details: for % IFNγ+ CD8+ T cells, MR766 / % IFNγ+ CD8+ T cells, FSS13025: HLA-B*0702 mice; for % IFNγ+ CD8+ T cells, MR766: 7 days after ZIKV MR766, ICS; for % IFNγ+ CD8+ T cells, FSS13025: 7 days after ZIKV FSS13025, ICS
Experimental: as §1
Spleens were harvested from virus-infected, mock-immunized, or peptide-immunized mice. 1×10^6 splenocytes were plated in each well of 96-well U-bottom plates and stimulated with individual peptide (10 μg crude peptide or 1 μg pure peptide per well) for 6 hours. Five hours before the end of incubation, Brefeldin A (GolgiPlug; BD Biosciences) and PE-conjugated anti CD107a mAb (clone 1D4B, eBioscience) were added to the cells. Splenocytes stimulated with PMA-ionomycin were used as the positive control, while cells without any stimulation were the negative control. […] Samples were run using an LSR™ II (BD Biosciences) and analyzed using FLOWJO™ software X 10.0.7 (Tree Star, Ashland, Oreg.).
Data represent the average of two independent experiments and are expressed as mean±SEM. *, P<0.05; **, P<0.01; Two-tailed Mann-Whitney test. P/I denotes PMA/ionomycin.

| Substance | Strains (ZIKV strain for which the peptide induced a positive T cell response, IFNγ-ELISPOT) (CD8+ T cells [1]) | SFC/10^6 CD8+ T cells, MR766 (CD8+ T cells [2]) | % IFNγ+ CD8+ T cells, MR766 (CD3+CD8+ T cells) | further results |
| --- | --- | --- | --- | --- |
| 5 (PSVRNGNEI) [compound 5] | MR766 | – | – | – |
| SPRAEATL [FSS/MR-E173-180] | – | 108 SFC/10^6 CD8+ T cells | – | SFC/10^6 CD8+ T cells, FSS13025 (CD8+ T cells [2]): 167 SFC/10^6 CD8+ T cells |
| 8 (SSIAARGYI) [compound 8] | MR766 | – | – | – |
| SPQDNQMAI [FSS/MR-NS4A125-133] | – | 159 SFC/10^6 CD8+ T cells | – | – |
| 12 (TTVSNMAEV) [compound 12] | MR766 | – | – | – |
| RPAEGGKTVM [MR-NS5332-341] | – | 277 SFC/10^6 CD8+ T cells | (0.35%) | – |
| 24 (RSYCYEASI) [compound 24] | MR766/FSS | – | – | – |
| RPYKAAAAQL [FSS/MR-NS4A36-45] | – | 120 SFC/10^6 CD8+ T cells | – | – |
| 6 (RAIWYMWL) [compound 6] | MR766 | – | – | – |
| GPQRLPVPV [FSS/MR-NS199-107] | – | 103 SFC/10^6 CD8+ T cells | – | – |
| GPCKVPAQMAV [FSS-E337-347] | – | 271 SFC/10^6 CD8+ T cells | – | – |
| 21 (IGVSNRDFV) [compound 21] | MR766/FSS | – | – | – |
| 15 (AAFTFTKI) [compound 15] | FSS | – | – | – |
| 3 (ISFATTLGV) [compound 3] | MR766 | – | – | – |
| RPASAWAIYA [FSS/MR-NS4B35-44] | – | 180 SFC/10^6 CD8+ T cells | (0.49%) | – |
| 14 (YSLECDPAVI) [compound 14] | MR766 | – | – | – |
| TPNSPRAEA [FSS/MR-E170-178] | – | 155 SFC/10^6 CD8+ T cells | – | – |
| LPILAALTPL [MR-NS2A141-150] | – | 540 SFC/10^6 CD8+ T cells | (0.28%) | – |
| 18 (IMVAVGLL) [compound 18] | MR766/FSS | – | – | – |
| RPEADKVAAI [FSS/MR-NS3492-501] | – | 157 SFC/10^6 CD8+ T cells | – | – |

| Substance | Strains (ZIKV strain for which the peptide induced a positive T cell response, IFNγ-ELISPOT) (CD8+ T cells [1]) | SFC/10^6 CD8+ T cells, MR766 (CD8+ T cells [2]) | % IFNγ+ CD8+ T cells, MR766 (CD3+CD8+ T cells) | further results |
| --- | --- | --- | --- | --- |
| 9 (SSLVNGVVRL) [compound 9] | MR766 | – | – | – |
| TPHWNNKEAL [FSS/MR-E233-242] | – | 218 SFC/10^6 CD8+ T cells | (0.3%) | SFC/10^6 CD8+ T cells, FSS13025 (CD8+ T cells [2]): 158 SFC/10^6 CD8+ T cells |
| SPFGGLKRLPA [FSS-C25-35] | – | – | – | SFC/10^6 CD8+ T cells, FSS13025 (CD8+ T cells [2]): 802 SFC/10^6 CD8+ T cells; % IFNγ+ CD8+ T cells, FSS13025 (CD3+CD8+ T cells): (0.79%); simultaneous IFNγ and TNFα production by peptide-stimulated CD8+ T cells (CD3+CD8+ T cells; ZIKV FSS13025-infected mice): stimulated production of both IFNγ and TNFα |
| 16 (SSLINGVVRL) [compound 16] | FSS | – | – | – |
| 25 (SNRDFVEGM) [compound 25] | MR766/FSS | – | – | – |
| 27 (SVKKNLPFVM) [compound 27] | MR766/FSS | – | – | – |
| IPYLGKREDL [FSS/MR-NS5587-596] | – | 438 SFC/10^6 CD8+ T cells | (0.26%) | SFC/10^6 CD8+ T cells, FSS13025 (CD8+ T cells [2]): 178 SFC/10^6 CD8+ T cells |
| 28 (VSFIFRAN) [compound 28] | MR766/FSS | – | – | – |
| 11 (TGWSNWEEV) [compound 11] | MR766 | – | – | – |
| VPRTDNIAL [MR-NS2A133-141] | – | 776 SFC/10^6 CD8+ T cells | (1.39%) | SFC/10^6 CD8+ T cells, FSS13025 (CD8+ T cells [2]): 648 SFC/10^6 CD8+ T cells; immunodominance in IFNγ ELISPOT (CD8+ T cells [2]): immunodominant; % IFNγ+ CD8+ T cells, FSS13025 (CD3+CD8+ T cells): (0.54%) |
| RPRTTVVAENI [FSS/MR-NS5605-614] | – | 641 SFC/10^6 CD8+ T cells | (0.55%) | SFC/10^6 CD8+ T cells, FSS13025 (CD8+ T cells [2]): 383 SFC/10^6 CD8+ T cells; % IFNγ+ CD8+ T cells, FSS13025 (CD3+CD8+ T cells): (0.22%) |
| 19 (ATMSYECPM) [compound 19] | MR766/FSS | – | – | – |
| TPLARGTL [FSS/MR-NS2A148-155] | – | 1055 SFC/10^6 CD8+ T cells | (0.87%) | SFC/10^6 CD8+ T cells, FSS13025 (CD8+ T cells [2]): 706 SFC/10^6 CD8+ T cells; immunodominance in IFNγ ELISPOT (CD8+ T cells [2]): immunodominant; % IFNγ+ CD8+ T cells, FSS13025 (CD3+CD8+ T cells): (0.28%); simultaneous IFNγ and TNFα production by peptide-stimulated CD8+ T cells (CD3+CD8+ T cells; ZIKV MR766-infected mice): stimulated simultaneous production of IFNγ and TNFα |
| RVIDSRRCL [FSS/MR-NS3405-413] | – | 718 SFC/10^6 CD8+ T cells | (0.4%) | SFC/10^6 CD8+ T cells, FSS13025 (CD8+ T cells [2]): 236 SFC/10^6 CD8+ T cells; % IFNγ+ CD8+ T cells, FSS13025 (CD3+CD8+ T cells): (0.23%) |
| 29 (VVIKNGSYV) [compound 29] | MR766/FSS | – | – | – |
| FPDSNSPINI (FPDSNSPIM) [FSS/MR-NS3309-317] | – | 565 SFC/10^6 CD8+ T cells | (0.49%) | SFC/10^6 CD8+ T cells, FSS13025 (CD8+ T cells [2]): 335 SFC/10^6 CD8+ T cells |
| 7 (RQVMNIVSSWL) [compound 7] | MR766 | – | – | – |
| AAGKRGAAL [MR-NS3596-NS4A1] | – | 148 SFC/10^6 CD8+ T cells | – | – |
| TPLTLIVAIIL [FSS/MR-NS4B105-115] | – | 163 SFC/10^6 CD8+ T cells | (0.4%) | – |
| LPSHSTRKL [FSS/MR-M4-12] | – | 398 SFC/10^6 CD8+ T cells | (0.28%) | SFC/10^6 CD8+ T cells, FSS13025 (CD8+ T cells [2]): 235 SFC/10^6 CD8+ T cells |
